Experimental data as given in patent US20240158368A1, “Pyrrolidine Main Protease Inhibitors as Antiviral Agents” (AbbVie Inc., priority 2022, published 2024).

Experiments:
in vitro [1] = details: human, pH 7.4
MERS Mpro = MERS Mpro (Middle East respiratory syndrome-related coronavirus (isolate United Kingdom/H123990006/2012) (MERS-CoV) (Betacoronavirus England 1), UniProt K9N7C7); assay: biochemical
in vitro [2] = details: rat, pH 7.4
[3] = test system: SARS-CoV-2 (strain USA-WA1/2020); assay: microbe, parasite or virus in culture; assay type: cell-based; details: Severe acute respiratory syndrome coronavirus 2; HeLa-ACE2 cells; read-out: Antiviral CoV-2 EC50
in vitro [4] = details: PAMPA
229E Mpro = 229E Mpro (Human coronavirus 229E (HCoV-229E), UniProt P0C6X1); assay type: biochemical
Chain of 229E Mpro (P0C6X1 2966-3267 limits assumed): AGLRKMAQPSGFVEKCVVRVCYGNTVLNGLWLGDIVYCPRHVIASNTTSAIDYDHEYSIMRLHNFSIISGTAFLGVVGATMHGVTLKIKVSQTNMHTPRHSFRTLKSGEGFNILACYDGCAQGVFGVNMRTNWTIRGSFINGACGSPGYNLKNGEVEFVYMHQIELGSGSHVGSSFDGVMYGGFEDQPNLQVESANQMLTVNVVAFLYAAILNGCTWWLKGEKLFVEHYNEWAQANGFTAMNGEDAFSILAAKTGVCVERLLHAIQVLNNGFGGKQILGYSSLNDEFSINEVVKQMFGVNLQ

SARS-CoV-2 Mpro = SARS-CoV-2 Mpro (Severe acute respiratory syndrome coronavirus 2 (2019-nCoV) (SARS-CoV-2), UniProt P0DTD1); assay type: biochemical
OC43 Mpro = OC43 Mpro (Human coronavirus OC43 (HCoV-OC43), UniProt P0C6X6); assay type: biochemical
Chain of OC43 Mpro (P0C6X6 3247-3549 limits assumed): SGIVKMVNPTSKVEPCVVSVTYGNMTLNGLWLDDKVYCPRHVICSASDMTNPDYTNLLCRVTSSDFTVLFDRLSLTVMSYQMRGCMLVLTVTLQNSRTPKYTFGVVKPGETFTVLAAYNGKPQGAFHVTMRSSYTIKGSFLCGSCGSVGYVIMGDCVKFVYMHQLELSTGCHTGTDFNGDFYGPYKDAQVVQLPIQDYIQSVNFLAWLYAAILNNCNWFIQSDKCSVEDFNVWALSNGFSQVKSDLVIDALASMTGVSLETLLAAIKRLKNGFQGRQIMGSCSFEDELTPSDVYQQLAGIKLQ

Chain of MERS Mpro (K9N7C7 3248-3553 limits assumed): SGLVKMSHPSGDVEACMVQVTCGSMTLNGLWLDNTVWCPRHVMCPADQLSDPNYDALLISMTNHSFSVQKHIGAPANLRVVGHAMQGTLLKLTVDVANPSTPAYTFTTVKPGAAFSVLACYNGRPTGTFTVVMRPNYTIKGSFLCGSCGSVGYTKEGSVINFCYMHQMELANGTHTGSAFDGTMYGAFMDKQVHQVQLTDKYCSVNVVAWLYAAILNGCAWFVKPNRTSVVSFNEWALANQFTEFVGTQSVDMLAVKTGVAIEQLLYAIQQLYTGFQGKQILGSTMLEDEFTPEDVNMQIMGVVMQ

Structure (SMILES) | CLint scaled (in vitro [1]) [mL/min/kg] | EC50 (MERS Mpro) [nM] | CLint scaled (in vitro [2]) [mL/min/kg] | EC50 [3] [nM] | Papp (in vitro [4]) [×10⁻⁶ cm/s] | CLint scaled (in vitro [1]; microsomes) [mL/min/kg] | EC50 (229E Mpro) [nM] | EC50 (SARS-CoV-2 Mpro) [nM] | EC50 (OC43 Mpro) [nM] | CLint scaled (in vitro [2]; microsomes) [mL/min/kg]
N#Cc1cc(C(=O)N2C[C@H]3COC[C@H]3C2)c(N2CC[C@@H](NC(=O)c3cc(=O)[nH]c4c(F)cccc34)C2)c(C(F)(F)F)c1 [Compound 18] | 38.3 | 1.35 | 95 | 13.6 | 7.19 | – | – | – | – | –
CN1CCN(C(=O)c2cc(C#N)cc(C3CC3)c2N2CC[C@@H](NC(=O)c3cc(=O)[nH]c4c(F)cccc34)C2)CC1 [Compound 41] | – | 0.82 | – | – | 0.59 | 147 | 2.16 | 0.45 | 0.69 | 280
O=C(N[C@@H]1CCN(c2c(OC(F)(F)F)cc(Cl)cc2C(=O)N2CCOCC2)C1)c1cc(=O)[nH]c2c(F)cccc12 [Compound 44] | – | 1.07 | – | – | 15.3 | 41.7 | 3.18 | 0.53 | 1.98 | 292
N#Cc1cc(C(=O)N2CCNC(=O)C2)c(N2CC[C@@H](NC(=O)c3cc(=O)[nH]c4c(F)cccc34)C2)c(C(F)(F)F)c1 [Compound 27] | – | 1.36 | – | 2800 | 0.11 | < 35 | – | 0.63 | 8.72 | < 58.3
O=C(N[C@@H]1CCN(c2c(C(=O)N3CC(F)(F)C3)cc(Br)cc2C(F)(F)F)C1)c1cc(=O)[nH]c2c(F)cccc12 [Compound 70] | – | 1.96 | – | – | 13.9 | 205 | 33.7 | 1.02 | 11.1 | 845
N#Cc1cc(C(=O)N2CCC(F)(F)C2)c(N2CC[C@@H](NC(=O)c3cc(=O)[nH]c4c(F)cccc34)C2)c(C(F)(F)F)c1 [Compound 21] | 55 | 1.3 | 128 | – | 8.89 | – | – | – | – | –
N#Cc1cc(C(=O)N2CCCC2)c(N2CC[C@@H](NC(=O)c3cc(=O)[nH]c4c(F)cccc34)C2)c(C(F)(F)F)c1 [Compound 20] | < 36.7 | 1.68 | 142 | – | 13.8 | – | – | – | – | –
O=C(N[C@@H]1CCN(c2c(C(=O)N3CCC(F)(F)C3)cc(Br)cc2C(F)(F)F)C1)c1cc(=O)[nH]c2c(F)cccc12 [Compound 69] | – | 1.76 | – | – | 14.5 | 303 | 15.5 | 0.67 | 4.92 | 1040
O=C(N[C@@H]1CCN(c2c(C(=O)N3CCCC3)cc(Br)cc2C(F)(F)F)C1)c1cc(=O)[nH]c2c(F)cccc12 [Compound 68] | – | 1.83 | – | – | 14.7 | 317 | 10.4 | 0.6 | 3.55 | 1120
Cc1cc(C(=O)N[C@@H]2CCN(c3c(C(=O)N4CCOCC4)cc(C#N)cc3C(F)F)C2)c(F)c(=O)[nH]1 [Compound 12] | – | 2.65 | – | – | 0.23 | < 25 | 90.4 | 1.02 | 23.4 | < 41.7
O=C(N[C@@H]1CCN(c2c(C(=O)N3CCCCC3)cc(Br)cc2C(F)(F)F)C1)c1cc(=O)[nH]c2c(F)cccc12 [Compound 64] | – | 1.38 | – | – | 14.9 | 272 | 9.61 | 0.53 | 2.87 | 1070
O=C(N[C@@H]1CCN(c2c(C(=O)N3CCOCC3)cc(Br)cc2C(F)F)C1)c1c(F)c(=O)[nH]c2c(F)cccc12 [Compound 54] | – | 1.12 | – | 5 | 13.1 | 140 | 4.72 | 0.43 | 0.42 | 257
COCCN(C)C(=O)c1cc(Br)cc(C(F)(F)F)c1N1CC[C@@H](NC(=O)c2cc(=O)[nH]c3c(F)cccc23)C1 [Compound 72] | – | 2.83 | – | – | 19.6 | 562 | 39 | 1.11 | 19.2 | 1280
CCS(=O)(=O)N1CCN(C(=O)c2cc(C#N)cc(C(F)(F)F)c2N2CC[C@@H](NC(=O)c3cc(=O)[nH]c4c(F)cccc34)C2)CC1 [Compound 25] | – | 1.41 | – | – | 2.06 | – | – | – | – | –
N#Cc1cc(C(=O)N2CCCCC2)c(N2CC[C@@H](NC(=O)c3cc(=O)[nH]c4c(F)cccc34)C2)c(C(F)(F)F)c1 [Compound 15] | 76.7 | 3.28 | 220 | – | 15.2 | – | – | – | – | –
COCCN1CCN(C(=O)c2cc(C#N)cc(C(F)(F)F)c2N2CC[C@@H](NC(=O)c3cc(=O)[nH]c4c(F)cccc34)C2)CC1 [Compound 19] | < 36.7 | 1.44 | 200 | – | 6.68 | – | – | – | – | –
N#Cc1cc(C(=O)N2CC3CC(C2)O3)c(N2CC[C@@H](NC(=O)c3cc(=O)[nH]c4c(F)cccc34)C2)c(C(F)(F)F)c1 [Compound 17] | < 28.3 | 1.27 | < 48.3 | – | 4.6 | – | – | – | – | –
O=C(N[C@@H]1CCN(c2c(C(=O)N3CCOCC3)cc(Br)cc2C(F)(F)F)C1)c1c(F)c(=O)[nH]c2ccccc12 [Compound 53] | – | 1.86 | – | – | 8.9 | 217 | 1.98 | 0.6 | 0.71 | 615
O=C(N[C@H]1CCN(c2c(C(=O)N3CCOCC3)cc(Br)cc2C(F)(F)F)C1)c1cc(=O)[nH]c2c(F)cccc12 [Compound 47] | – | – | – | – | 15.7 | 46.7 | – | – | – | 182
O=C(N[C@@H]1CCN(c2c(C(=O)N3CC4COCC4C3)cc(Br)cc2C(F)(F)F)C1)c1cc(=O)[nH]c2c(F)cccc12 (stereo partly shown) [Compound 66] | – | 1.28 | – | – | 15 | 297 | 5.78 | 0.48 | 2.06 | 607
Cc1[nH]c(=O)c(F)c(C(=O)N[C@@H]2CCN(c3c(C(=O)N4CCOCC4)cc(C#N)cc3C(F)(F)F)C2)c1Cl [Compound 11] | – | 1.63 | – | – | 0.49 | – | 5.31 | 0.73 | 10.3 | < 61.7
C[C@@]12COC[C@@H]1CN(C(=O)c1cc(C#N)cc(C(F)(F)F)c1N1CC[C@@H](NC(=O)c3cc(=O)[nH]c4c(F)cccc34)C1)C2 [Compound 16] | 93.3 | 1.46 | 313 | – | 7.38 | – | – | – | – | –
O=C(N[C@@H]1CC(=O)N(c2c(C(=O)N3CCOCC3)cc(Br)cc2C(F)(F)F)C1)c1c(F)c(=O)[nH]c2c(F)c(F)ccc12 [Compound 77] | – | 1.69 | – | – | 3.46 | < 38.3 | 124 | 1.21 | 28.3 | < 65
N#Cc1cc(C(=O)N2CCOCC2)c(N2CC[C@H](NC(=O)c3cc(=O)[nH]c4c(F)cccc34)C2)c(C(F)(F)F)c1 [Compound 4] | – | – | – | – | 5.55 | < 25 | – | – | – | < 41.7
Cc1cc(C(=O)N[C@@H]2CCN(c3c(C(=O)NCC(C)C)cc(C#N)cc3C(F)(F)F)C2)cc(=O)[nH]1 [Compound 29] | – | 8.85 | – | – | 3.51 | < 30 | 682 | 13.9 | 378 | < 51.7
